Marks after values point to notes of the source that are not given here.
Test system: interleukin-6 (IL-6)
Experiment: LPS induced IL-6 production mouse assay
Type: in vivo
Conditions: male CD1 mice; for IL-6 Cmax: LPS iv 1 hour after dosing
Method: The compound was assayed for its ability to inhibit lipopolysaccharide (LPS) induced interleukin-6 (IL-6) production in mice. Male CD1 mice (Charles River Laboratories, 5 per group) received an intravenous challenge of LPS (100 μg/kg, L3192 E coli 0127:B8) 1 hour after oral administration of compound (in 1% (w/v) methylcellulose, aq 400). Serial blood samples were collected via teil vein up to 4 hours or via cardiac puncture at 6 hours (terminal sample) post oral drug administration and the serum harvested from the blood samples was frozen at −80° C. On the day of analysis, the serum was thawed to room temperature and levels of IL-6 were measured using single-spot cytokine assay plates (K152QXD) from Meso Scale Discovery (MSD, Gaithersburg, Md.). The levels of IL-6 were detected according to the manufacturer's protocol (MSD) and read on a SECTOR imager 6000 (MSD). The mean IL-6 Cmax and AUC0-t values were generated using WinNonlin Phoenix version 6.3 and the mean percent Cmax and AUC0-t IL-6 reduction following treatment with compound was calculated compared to the corresponding vehicle treated group. Levels of significance were calculated by analysis of variance (ANOVA) followed by Dunnett's multiple comparison t-test using Graphpad Prism version 5.04 (Graphpad Software, San Diego, Calif.). Statistical differences were determined as *P<0.05, **P<0.01.

## CC(=O)N1c2ccc(C(N)=O)cc2[C@H](Nc2ncc(Cl)cn2)C[C@@H]1C [Example 14, (2S,4R)-1-acetyl-4-((5-chloropyrimidin-2-yl)amino)-2-methyl-1,2,3,4-tetrahydroquinoline-6-carboxamide]
1 mg/kg oral
  % reduction in IL-6 AUC from vehicle: 49* %
  % reduction in IL-6 Cmax from vehicle: 58%
  IL-6 AUC0-t: 554 ng·h/mL
  IL-6 Cmax: 291 ng/mL
3 mg/kg oral
  % reduction in IL-6 AUC from vehicle: 55** %
  % reduction in IL-6 Cmax from vehicle: 48%
  IL-6 AUC0-t: 495 ng·h/mL
  IL-6 Cmax: 357 ng/mL
10 mg/kg oral
  % reduction in IL-6 AUC from vehicle: 48* %
  % reduction in IL-6 Cmax from vehicle: 62* %
  IL-6 AUC0-t: 563 ng·h/mL
  IL-6 Cmax: 258 ng/mL

Reference: US10059699B2, “Tetrahydroquinoline derivatives as bromodomain inhibitors” (GlaxoSmithKline Intellectual Property (No.2) Limited, priority 2014, dated 2018)
